Results as given in PMC12410356 (International Journal for Parasitology: Drugs and Drug …, 2025).

How the values were obtained:
[1] = tested on: E. multilocularis metacestode vesicles; test: Phosphoglucose isomerase (PGI) release assay (damage-marker release) on metacestode vesicles; format: cell-based, Echinococcus multilocularis; settings: 10 μM; for PGI d5 (relative PGI release): 5 days; for PGI d12 (relative PGI release): 12 days
Method: In order to quantify the drug-induced damage on whole metacestode vesicles, phosphoglucose isomerase (PGI) assay was performed as described previously ([Stadelmann et al., 2010]) with few adaptations published recently ([Kaethner et al., 2023]). In short, 8 to 12 weeks-old metacestode vesicles were purified using 2 % sucrose with subsequent washes in PBS. Metacestode vesicles were diluted in two volumes of DMEM without phenol red containing penicillin (100 U/mL) and streptomycin (100 μg/mL). […] 0.1 % DMSO was used as a negative solvent control and 0.1 % Triton X-100 was used as a positive total damage control. Metacestode vesicles were incubated under a humid, 5 % CO2 atmosphere at 37 °C. After five and twelve days, supernatant was taken and pictures were made using a Nikon SMZ18 stereo microscope (Nikon, Basel, Switzerland) at 7.5 × magnification. PGI activity in the supernatants was measured on a HIDEX Sense microplate reader (Hidex, Turku, Finland). The corresponding values of the DMSO controls were subtracted from the values of the compounds and then PGI activity was calculated relative to 0.1 % Triton X-100. […] IC50 values were calculated applying the 3 parameter Weibull type 1 in R for each of the three independent experiments ([Ritler et al., 2020]).

[2] = tested on: E. multilocularis metacestode vesicles; test: Metacestode vesicle viability assay (ATP, CellTiter-Glo); format: cell-based, Echinococcus multilocularis
Method: Viability was assessed after 12 days using the same metacestode vesicles as for the PGI release assay. Triton X-100 was added to each well to a final concentration of 0.1 %. Subsequently the metacestode vesicles were broken mechanically and 50 μL of the supernatant was mixed with 50 μL of CellTiter-Glo® buffer (Promega, Dübendorf, Switzerland). Measurements were performed on a HIDEX Sense microplate reader.

[3] = overview screen, singlets, relative to 0.1 % Triton X-100, DMSO subtracted
[4] = overview screen, 10 μM, singlets, 12 days, relative to DMSO control
[5] = confirmation screen, triplicates, mean
[6] = confirmation screen, 10 μM, triplicates, mean, 12 days

SMILES | PGI d5 (relative PGI release) [1, 3] [%] | PGI d12 (relative PGI release) [1, 3] [%] | Viability d12 (relative viability) [2, 4] [%] | PGI d5 (relative PGI release) [1, 5] [%] | PGI d12 (relative PGI release) [1, 5] [%] | Viability d12 (relative viability) [2, 6] [%] | Viability d12 (relative viability) ([2]; 10 µM) [%]
Clc1cccc(-c2nnc(-c3ccccc3)o2)c1 [MMV141011] | -1.462 | -13.7141 | 31.8959 |  |  |  | 
NC1C2CC3CC(C2)CC1C3 (stereo not drawn) [MMV180402] | -0.5217 | -14.4779 | 111.504 |  |  |  | 
O=C(CC1Sc2ncnn2C1=O)Nc1ccc(Br)cc1 (stereo not drawn) [MMV214956] | -1.614 | -20.0728 | 47.1606 |  |  |  | 
O=C(O)CSc1cc(NS(=O)(=O)c2cccc3cccnc23)c2ccccc2c1O [MMV218827] | -0.1296 | 0.539 | 73.5027 |  |  |  | 
Cc1ccc(S(=O)(=O)Nc2cccc3cccnc23)cc1 [MMV233495] | 2.157 | 26.0665 | 70.919 |  |  |  | 
O=C(O)c1cc(-c2ccc(Br)cc2)nc2ccc(Cl)cc12 [MMV247764] | 0.5774 | -0.4305 | 115.677 |  |  |  | 
O=S(=O)(Nc1ccc(O)cc1)c1cccc2cccnc12 [MMV251679] | 0.1251 | -17.8593 | 83.9227 |  |  |  | 
CCN1CCN(Cc2nc3ccc([N+](=O)[O-])cc3c(=O)n2-c2ccccc2F)CC1 [MMV275100] | 0.006823 | -0.1551 | 107.175 |  |  |  | 
Oc1ccc2[nH]c(-c3ccccc3)nc2c1 [MMV292173] | -3.6461 | 2.293 | 56.2358 |  |  |  | 
COc1ccc(CNC(=O)C(NS(=O)(=O)c2ccc3nc(C)sc3c2)C(C)C)cc1 (stereo not drawn) [MMV303733] | -2.8306 | -9.3435 | 97.8993 |  |  |  | 
COc1ccc(NC(=O)c2cc3ccccn3n2)cc1 [MMV374187] | 0.2305 | 3.37 | 96.2395 |  |  |  | 
N=c1n(CCN2CCCCC2)c2ccccc2n1CC(O)COc1ccc(Cl)cc1Cl (stereo not drawn) [MMV394033] | 6.943 | 70.607 | 9.628 | 0.57 | 0.65 | 90.34 | 
Oc1cc(-c2cccc3ccccc23)[nH]n1 [MMV422940] | -1.4338 | -25.9471 | 50.1817 |  |  |  | 
O=C(O)C(Cc1c[nH]c2ccccc12)N1C(=O)c2ccccc2C1=O (stereo not drawn) [MMV452821] | 1.873 | 0.986 | 132.36 |  |  |  | 
NC(=O)c1ccccc1NC(=O)c1ccc(C(=O)Nc2ccccc2C(N)=O)cc1 [MMV508427] | -1.548 | -12.1939 | 83.3301 |  |  |  | 
Oc1c(C(Nc2ccccn2)c2ccccc2)ccc2cccnc12 (stereo not drawn) [MMV565773] | -0.6323 | -6.242 | 113.31 |  |  |  | 
O=C(c1cc(O)nc2ccccc12)N1CCN(c2ccccc2)CC1 [MMV596723] | 0.1357 | -19.4413 | 136.964 |  |  |  | 

SMILES | PGI d5 (relative PGI release) [1, 3] [%] | PGI d12 (relative PGI release) [1, 3] [%] | Viability d12 (relative viability) [2, 4] [%] | PGI d5 (relative PGI release) [1, 5] [%] | PGI d12 (relative PGI release) [1, 5] [%] | Viability d12 (relative viability) [2, 6] [%] | Viability d12 (relative viability) ([2]; 10 µM) [%]
COc1ccc(-n2cnc3cc(NCc4ccco4)ccc32)cc1 [MMV617332] | 0.2921 | -0.1496 | 117.278 |  |  |  | 
CN(Cc1ccc(C(C)(C)C)cc1)Cc1cccc2ccccc12.Cl [MMV637104] | -1.862 | -24.2411 | 73.8114 |  |  |  | 
O=c1[nH]cnc2c1ncn2[C@H]1CC[C@@H](CO)O1 [MMV637306] | -0.8027 | 5.98 |  |  |  |  | 229.844
Nc1nc(F)nc2c1ncn2[C@@H]1O[C@H](CO)[C@@H](O)[C@@H]1O [MMV637413] | -0.694 | 1.228 | 168.919 |  |  |  | 
CCC(C)n1ncn(-c2ccc(N3CCN(c4ccc(OCC5COC(Cn6cncn6)(c6ccc(Cl)cc6Cl)O5)cc4)CC3)cc2)c1=O (stereo not drawn) [MMV637528] | -2.417 | -24.1326 | 37.4902 |  |  |  | 
CC(=O)N1CCN(c2ccc(OC[C@@H]3CO[C@@](Cn4ccnc4)(c4ccc(Cl)cc4Cl)O3)cc2)CC1 [MMV637533] | 1.26 | -24.3929 | 224.858 |  |  |  | 
CC1CCc2c(N3CCC(O)CC3)c(F)cc3c(=O)c(C(=O)O)cn1c23 (stereo not drawn) [MMV637659] | -2.748 | -5.473 |  |  |  |  | 137.188
CC(N)C12CC3CC(CC(C3)C1)C2 (stereo not drawn) [MMV637855] | 0.08745 | -0.5462 | 63.7477 |  |  |  | 
CC(C)(C)NC(=O)[C@@H]1C[C@@H]2CCCC[C@@H]2CN1C[C@@H](O)[C@H](Cc1ccccc1)NC(=O)[C@H](CC(N)=O)NC(=O)c1ccc2ccccc2n1 [MMV637879] | -0.1506 | -17.9883 |  |  |  |  | 108.384
C=C(C)[C@@H]1CC[C@]2(C(=O)O)CC[C@]3(C)[C@H](CC[C@@H]4[C@@]5(C)CC[C@H](O)C(C)(C)[C@@H]5CC[C@]43C)[C@@H]12 [MMV638198] | -0.508 | -0.6563 | 121.139 |  |  |  | 
COC1CC2CCC(C)C(O)(O2)C(=O)C(=O)N2CCCCC2C(=O)OC(C(C)CC2CCC(OCCO)C(OC)C2)CC(=O)C(C)/C=C(\C)C(O)C(OC)C(=O)C(C)CC(C)/C=C/C=C/C=C/1C (stereo not drawn) [MMV639951] | -0.3944 | -20.0049 | 85.7507 |  |  |  | 
O=C(O)c1ccc(-n2nc(-c3ccccc3O)nc2-c2ccccc2O)cc1 [MMV640014] | -1.416 | -24.5374 | 145.619 |  |  |  | 
Oc1cccc(C(Nc2nccs2)c2ccc3cccnc3c2O)c1 (stereo not drawn) [MMV642550] | 8.475 | 88.2133 | 17.7096 | 0.17 | 0.81 | 142.26 | 
Cn1cncc1[C@@](N)(c1ccc(Cl)cc1)c1ccc2c(c1)c(-c1cccc(Cl)c1)cc(=O)n2C [MMV658803] | 0.7883 | -2.529 | 92.252 |  |  |  | 
CC(C)=CCC/C(C)=C\CNCCNC1C2CC3CC(C2)CC1C3 (stereo not drawn) [MMV687273] | 0.6754 | -4.6575 | 47.5933 |  |  |  | 
CCc1nc2ccc(Cl)cn2c1C(=O)NCc1ccc(N2CCC(c3ccc(OC(F)(F)F)cc3)CC2)cc1 [MMV687696] | -3.859 | -6.627 | 83.8288 |  |  |  | 
